Test results published in patent US11497747B2, “Compositions and methods for treating lung injuries associated with SARS-CoV-2 infections” (priority 2020, dated 2022).

Legend:
MAP3K2/MAP3K3 [1] = details: MEK5 substrate; cited from earlier work
[2] = cited from earlier work
acute lung injury (ALI) [3] = assay: mouse ALI/ARDS models (acid-induced direct insult, LPS-induced indirect insult); assay type: in vivo; details: dependent on MAP3K2/3 and ROS production
[4] = test system: coronavirus (Murine Hepatitis Virus Strain 1, MHV-1) induced mouse lung injury model; assay: survival and body weight loss in mouse coronavirus induced acute lung injury model; details: 3 mg/kgbw retro-orbital once daily for 5 days since 24 hr after virus inoculation
patients = details: cited from earlier work
[5] = test system: coronavirus (Murine Hepatitis Virus Strain 1, MHV-1) induced mouse lung injury model; assay: pulmonary permeability (FITC-albumin in BAL) in mouse coronavirus induced acute lung injury model
[6] = in vivo; cited from earlier work
MAP3K2/MAP3K3 [7] = details: p47phox substrate; cited from earlier work
neutrophils = details: cited from earlier work
MAP3K2/MAP3K3 [8] = assay: MAP3K2/MAP3K3-mediated phosphorylation of p47phox; assay type: biochemical
acute lung injury (ALI) [9] = details: cited from earlier work

Compound | inhibition of other substrates of MAP3K2/MAP3K3 such as MEK5 (MAP3K2/MAP3K3 [1]) | protein binding [2] [%] | ameliorating ALI in the two mouse ALI/ARDS models (acute lung injury (ALI) [3]) | survival rate ([4]; FIG. 6) | body weight loss ([4]; FIG. 7) | ILD/pneumonitis reported in patients in the clinical trials (patients; clinical trials) | patients who developed a pneumothorax (patients; randomized RCC trial) | pneumothorax occurrence (patients; randomized STS trial (8/240)) [%] | pulmonary permeability ([5]; 2 doses at 3 mg/kgbw retro-orbital, 24 and 33 h after 6000 PFU MHV-1, FIG. 2) | pulmonary permeability ([5]; 3 doses at 3 mg/kgbw retro-orbital, 6, 21 and 32 h after 5000 PFU MHV-1, FIG. 1) | pulmonary permeability ([5]; one dose 3 mg/kgbw retro-orbital at 24 hr after virus inoculation, FIG. 3) | pulmonary permeability ([5]; one dose 3 mg/kgbw retro-orbital at 48 hr after virus inoculation, FIG. 4) | pulmonary permeability ([5]; one dose 3 mg/kgbw retro-orbital at 72 hr after virus inoculation, FIG. 5) | bioavailability [6] | half-life [6] [h] | inhibition of MAP3K2/MAP3K3-mediated phosphorylation of p47phox (MAP3K2/MAP3K3 [7]) | ROS levels (neutrophils) | affinity as p47phox substrate-specific inhibitor for MAP3K2 and 3 (MAP3K2/MAP3K3 [8]) | reduction of ALI in mouse models (acute lung injury (ALI) [9])
5-({4-[(2,3-Dimethyl-2H-indazol-6-yl)methylamino]pyrimidin-2-yl}amino)-2-methylbenzenesulfonamide [pazopanib] | μM levels | > 99.5 | effective in ameliorating ALI | does not affect | does not affect | 0.1 % of patients | [t]wo of 290 | 3 | significantly reduce | significantly reduce | significantly reduce | significantly reduce | negligible effect | 14-21% | 30.9 to 31.9 | low nM levels | elevates ROS levels | low nanomolar | 
Cc1ccc(NC(=O)c2ccc(CN3CCN(C)CC3)cc2)cc1Nc1nccc(-c2cccnc2)n1 [imatinib] |  |  |  |  |  |  |  |  |  |  |  |  |  |  |  | do not inhibit |  |  | 
COC(=O)c1ccc2c(c1)NC(=O)/C2=C(\Nc1ccc(N(C)C(=O)CN2CCN(C)CC2)cc1)c1ccccc1 [nintedanib, Methyl (3Z)-3-{[(4-{methyl[(4-methylpiperazin-1-yl)acetyl]amino}phenyl)amino](phenyl)methylidene}-2-oxo-2,3-dihydro-1H-indole-6-carboxylate] |  |  |  |  |  |  |  |  |  |  |  |  |  |  |  | also inhibits |  |  | has been shown to reduce ALI
